Measured values from patent US4284621A, “Agents for protection against light” (Bayer Aktiengesellschaft, priority 1978, dated 1981).
Structures can show the parent of a compound that is named as a salt.

Assays:
[1] = UV absorption spectral data (wavelength λmax, molar extinction ε, specific extinction E1^1); format: physicochemical; set-up: Wavelength λmax: unit not given beside the values; conditions: for Molar extinction ε: in M-1cm-1; for specific extinction (in words, compared with compounds of formula I): comparison with compounds of formula I
14 day LD 50 (tolerance) = format: in vivo
[2] = Solubilities at room temperature (20-25° C.) in groundnut oil and groundnut oil/liquid paraffin 1:9; format: physicochemical
[3] = Table 1, second value, in parentheses

Compound	Specific extinction E1^1 ([1]; Table II)	Wavelength λmax (nm) ([1]; Table II)	Molar extinction ε ([1]; Table II)	Specific extinction E1^1 ([1]; Table 1)	Wavelength λmax ([1]; Table 1)	Molar extinction ε ([1]; Table 1)	further results
4-methoxy-benzylidene-cyanoacetic acid isodecyl ester [iso-Decyl]	790	341 nm	27,000				
4-methoxy-benzylidene-cyanoacetic acid isononyl ester [iso-Nonyl]	860	341 nm	28,400				14 day LD 50 (14 day LD 50 (tolerance)): 20.76 mL/kg
COC(=O)C(C#N)=Cc1ccccc1OC [2-Methoxybenzylidenecyanoacetic acid methyl ester]				470	354	10,300	Molar extinction ε (value in parentheses) [1, 3]: 12,100; Specific extinction E1^1 (value in parentheses) [1, 3]: 560; Wavelength λmax (value in parentheses) [1, 3]: 297
COC(=O)C(C#N)=Cc1ccc(OC)c(OC)c1 [3,4-Dimethoxybenzylidenecyanoacetic acid methyl ester]				970	360	24,000	
CCOC(=O)C(=Cc1ccc(OC)c(OC)c1)C(=O)OCC [3,4-Dimethoxybenzylidenemalonic acid diethyl ester]				670	308	20,500	
COC(=O)C(C#N)=Cc1cccc(N)c1 [3-Aminobenzylidenecyanic acid methyl ester]				830	310	16,800	
COC(=O)C(C#N)=Cc1cccc(O)c1 [3-Hydroxybenzylidenecyanoacetic acid methyl ester]				900	303	18,200	
CCOC(=O)C(=Cc1cccc(O)c1)C(=O)OCC [3-Hydroxybenzylidenemalonic acid diethyl ester]				770	282	20,300	
COC(=O)C(C#N)=Cc1cccc(OC)c1 [3-Methoxybenzylidenecyanoacetic acid methyl ester]				710	299	15,300	
COC(=O)C(C#N)=Cc1ccc(Cl)cc1 [4-Chlorobenzylidenecyanoacetic acid methyl ester]				940	313	20,900	
COC(=O)C(C#N)=Cc1ccc(N(C)C)cc1 [4-Dimethylaminobenzylidenecyanoacetic acid methyl ester]				870	421	19,900	
CN(C)c1ccc(C=C(C(N)=O)C(N)=O)cc1 [4-Dimethylaminobenzylidenemalonic acid diamide]				870	369	20,400	
COC(=O)C(=Cc1ccc(N(C)C)cc1)C(=O)OC [4-Dimethylaminobenzylidenemalonic acid dimethyl ester]				1,200	375	31,400	
CCOC(=O)C(=Cc1ccc(O)c(OC)c1)C(C)=O [4-Hydroxy-3-methoxybenzylideneacetoacetic acid ethyl ester]				690	340	18,200	
COC(=O)C(C#N)=Cc1ccc(O)c(OC)c1 [4-Hydroxy-3-methoxybenzylidenecyanoacetic acid methyl ester]				960	366	22,400	
CCOC(=O)C(=Cc1ccc(O)c(OC)c1)C(=O)OCC [4-Hydroxy-3-methoxybenzylidenemalonic acid diethyl ester]				630	332	20,750	
COC(=O)C(C#N)=Cc1ccc(O)cc1 [4-Hydroxybenzylidenecyanoacetic acid methyl ester]				1,350	348	27,300	
C=C(C)C(=O)Oc1ccc(C=C(C#N)C(=O)OC)cc1 [4-Methacryloxybenzylidenecyanoacetic acid methyl ester]				1,230	312	23,000	
CCOC(=O)C(=Cc1ccc(OC)cc1)C(C)=O [4-Methoxybenzylideneacetoacetic acid ethyl ester]				770	316	19,000	

Compound	Specific extinction E1^1 ([1]; Table II)	Wavelength λmax (nm) ([1]; Table II)	Molar extinction ε ([1]; Table II)	Specific extinction E1^1 ([1]; Table 1)	Wavelength λmax ([1]; Table 1)	Molar extinction ε ([1]; Table 1)	further results
COc1ccc(C=C(C#N)C(N)=O)cc1 [4-Methoxybenzylidenecyanoacetic acid amide]				1,200	332	24,300	
COc1ccc(C=C(C#N)C(=O)N(CC(C)C)CC(C)C)cc1 [4-Methoxybenzylidenecyanoacetic acid diisobutylamide]				510	325	15,900	
COC(=O)C(C#N)=Cc1ccc(OC)cc1 [4-Methoxybenzylidenecyanoacetic acid methyl ester]				1,350	340	29,300	
COc1ccc(C=C(C(=O)OCC(C)C)C(=O)OCC(C)C)cc1 [4-Methoxybenzylidenemalonic acid diisobutyl ester]				740	312	24,800	
COC(=O)C(C#N)=Cc1ccc(C)cc1 [4-Methylbenzylidenecyanoacetic acid methyl ester]				1,230	317	25,000	
COc1ccc(C(=O)c2cc(S(=O)(=O)O)c(OC)cc2O)c(O)c1 [(1), sodium salt of 2,2'-dihydroxy-4,4'-dimethoxybenzophenone-5-sulphonic acid]	160	330 nm	5,920				specific extinction (in words, compared with compounds of formula I) ([1]; Table II): significantly lower specific extinction
O=C(c1ccc(O)cc1O)c1ccc(O)cc1O [(2), 2,2',4,4'-tetrahydroxybenzophenone]	645	351 nm	15,900				specific extinction (in words, compared with compounds of formula I) ([1]; Table II): significantly lower specific extinction; Solubility at room temperature in groundnut oil (%) [2]: 0.8%
COc1ccc(C(=O)CC(=O)c2ccc(OC)cc2)cc1 [(3), dianisoylmethane]							Solubility at room temperature in groundnut oil (%) [2]: 1%
COC(=O)C(C#N)=Cc1ccco1 [Furfurylidenecyanoacetic acid methyl ester]				1,530	337	27,000	
CCCCOC(=O)C(C#N)=Cc1ccc(OC)cc1 [n-Butyl]	1,090	342 nm	28,300				Solubility at room temperature in groundnut oil (%) [2]: 17%; Solubility at room temperature in groundnut oil/liquid paraffin 1:9 (%) [2]: 3%
CCCCCCCCCCOC(=O)C(C#N)=Cc1ccc(OC)cc1 [n-Decyl, 4-methoxy-benzylidene-cyanoacetic acid n-decyl ester]	810	341 nm	27,700				
CCCCCCCCCCCCOC(=O)C(C#N)=Cc1ccc(OC)cc1 [n-Dodecyl]	770	342 nm	28,450				Solubility at room temperature in groundnut oil (%) [2]: 14%
CCCCCCCOC(=O)C(C#N)=Cc1ccc(OC)cc1 [n-Heptyl]	940	341 nm	28,300				Solubility at room temperature in groundnut oil (%) [2]: 33%; Solubility at room temperature in groundnut oil/liquid paraffin 1:9 (%) [2]: 7%
CCCCCCOC(=O)C(C#N)=Cc1ccc(OC)cc1 [n-Hexyl, 4-methoxy-benzylidene-cyanoacetic acid n-hexyl ester]	990	342 nm	28,500				Solubility at room temperature in groundnut oil/liquid paraffin 1:9 (%) [2]: 90%; 14 day LD 50 (14 day LD 50 (tolerance)): 5.71 mL/kg
CCCCCCCCCOC(=O)C(C#N)=Cc1ccc(OC)cc1 [n-Nonyl]	910	341 nm	30,000				Solubility at room temperature in groundnut oil (%) [2]: 55%; Solubility at room temperature in groundnut oil/liquid paraffin 1:9 (%) [2]: 10%
CCCCCCCCOC(=O)C(C#N)=Cc1ccc(OC)cc1 [n-Octyl, 4-methoxy-benzylidene-cyanoacetic acid n-octyl ester]	970	341 nm	30,500				Solubility at room temperature in groundnut oil/liquid paraffin 1:9 (%) [2]: 90%
CCCCCOC(=O)C(C#N)=Cc1ccc(OC)cc1 [n-Pentyl]	1,050	341 nm	28,600				Solubility at room temperature in groundnut oil (%) [2]: 6-7%; Solubility at room temperature in groundnut oil/liquid paraffin 1:9 (%) [2]: 1.4%
COC(=O)C(C#N)=C(c1ccccc1)c1ccccc1 [α-Cyano-β,β-diphenyl-acrylic acid methyl]				520		14,000	
COC(=O)C(C#N)=C(C)c1ccc(OC)cc1 [α-Cyano-β-methyl-β-(4-methoxyphenyl)-acrylic acid methyl ester]				460	318	10,900	
